According to ChEMBL document CHEMBL3112502, “The insulin secretory action of novel polycyclic guanidines: discovery through open innovation phenotypic screening, and exploration of structure-activity relationships” (Bioorg Med Chem Lett, 2014):
Activity calls are given as the source filed them. The calls are words filed in the database; no cut-off is given here.

Legend:
[1] = Stimulation of insulin secretion in rat INS-1E cells after 1 hr by alphaLISA assay in presence of 5 mM glucose; format: functional, cell-based
INS-1E = assay: (§1) Stimulation of insulin secretion in rat INS-1E cells after 1 hr by alphaLISA assay in presence of 0.1 mM glucose; format: functional, cell-based
[2] = Stimulation of insulin secretion in rat INS-1E cells after 1 hr by alphaLISA assay in presence of 5 mM glucose relative to IBMX; format: functional
[3] = as §1; format: functional, cell-based
Pancreatic islet [4] = assay: Stimulation of insulin secretion in rat pancreatic islets in presence of 11 mM glucose; format: functional
[5] = Stimulation of insulin secretion in rat INS-1E cells after 1 hr by alphaLISA assay in presence of 0.1 mM glucose relative to IBMX; format: functional
Pancreatic islet [6] = assay: Stimulation of insulin secretion in rat pancreatic islets at 3 uM in presence of 11 mM glucose; format: functional
Pancreatic islet [7] = assay: Stimulation of insulin secretion in rat pancreatic islets at 3 uM in presence of 3 mM glucose; format: functional

EC50 [1] [µM] | Compound | Activity (INS-1E) | Emax [2] [%] | also measured
> 33 | Cc1cc(C)c(Nc2cccc(CC[C@H]3CC[C@@H]4C[C@H](c5ccccc5)NC(=N)N34)c2)c(C)c1 | inactive | – | –
> 33 | N=C1N[C@@H](c2ccc(C(F)(F)F)cc2)C[C@H]2CC[C@H](CCc3ccccc3)N12 | inactive | – | –
2.74 | N=C1N[C@H](c2ccccc2)C[C@H]2CC[C@H](CCc3ccccc3)N12 | – | 21 | –
1.3 | C[C@@H]1[C@H]2CC[C@H](CCc3ccccc3)N2C(=N)N[C@H]1c1ccccc1 | – | 27 | EC50 [3]: > 33 µM; Activity (Pancreatic islet [4]): Active
1.25 | N=C1N[C@@H](c2ccccc2)C[C@H]2CC[C@H](CCc3ccccc3)N12 | – | 34 | EC50 [3]: > 33 µM
> 33 | O=C1N[C@@H](c2ccccc2)C[C@H]2CC[C@H](CCc3ccccc3)N12 | inactive | – | –
0.67 | CN1C(=N)N2[C@@H](CCc3ccccc3)CC[C@@H]2C[C@@H]1c1ccccc1 | inactive | 29 | –
0.67 | N=C1N[C@@H](c2ccccc2Br)C[C@H]2CC[C@H](CCc3ccccc3)N12 (mixture of isomers) | inactive | 52 | –
0.003 | COc1ccc(Cl)cc1C(=O)NCCc1ccc(S(=O)(=O)NC(=O)NC2CCCCC2)cc1 [GLYBURIDE] | – | 50 | Emax [5]: 17%; EC50 [3]: 0.007 µM
0.75 | N=C1N[C@@H](C2CCCCC2)C[C@H]2CC[C@H](CCc3ccccc3)N12 | inactive | 40 | –
1.45 | C/C=C/[C@H]1C[C@H]2CC[C@H](CCc3ccccc3)N2C(=N)N1 | – | 21 | EC50 [3]: > 33 µM
1.33 | N=C(N)N1C(CCc2ccccc2)CCC1Sc1ccccc1 (centres undefined) | inactive | 62 | –
1.01 | N=C1N[C@@H](c2cccc(Br)c2)C[C@H]2CC[C@H](CCc3ccccc3)N12 | inactive | 22 | –
> 33 | N=C1NCC[C@H]2CC[C@H](CCc3ccccc3)N12 | inactive | – | –
> 33 | N=C1N[C@@H](c2ccccc2)C[C@H]2CC[C@H](c3ccccc3)N12 | inactive | – | –
> 33 | Cc1cc(C)c(Nc2ccc(CC[C@H]3CC[C@@H]4C[C@H](c5ccccc5)NC(=N)N34)cc2)c(C)c1 | inactive | – | –
> 33 | N=C1N[C@@H](c2ccccc2)C[C@H]2CC[C@H](c3ccc(-c4ccccc4)cc3)N12 | inactive | – | –
> 33 | CC(=O)Nc1ccc([C@H]2C[C@H]3CC[C@H](CCc4ccccc4)N3C(=N)N2)cc1 | inactive | – | –
5.03 | N=C(N)N1C(Sc2ccccc2)CCC1c1ccccc1 (mixture of isomers) | inactive | 54 | –

EC50 [1] [µM] | Compound | Activity (INS-1E) | Emax [2] [%] | also measured
5.74 | N=C(N)N1C(CCc2ccccc2)CCC1Cc1ccccc1 (mixture of isomers) | inactive | 56 | –
4.79 | N=C1NC(c2ccccc2)CCN1CCCc1ccccc1 (centres undefined) | inactive | 39 | –
4.87 | N=C(N)N1C(CCc2ccccc2)CCC1CCc1ccccc1 (mixture of isomers) | inactive | 29 | –
0.45 | N=C1N[C@@H](c2ccccc2)C[C@H]2CC[C@H](CCc3cccc(Br)c3)N12 | inactive | 26 | –
> 33 | N=C1N[C@@H](c2ccccc2)C[C@H]2CC[C@H](COc3ccccc3)N12 | inactive | – | –
4.04 | N=C1N[C@@H](c2ccc(F)cc2)C[C@H]2CC[C@H](CCc3ccccc3)N12 | inactive | 26 | –
1 | Cc1ccc([C@H]2C[C@H]3CC[C@H](CCc4ccccc4)N3C(=N)N2)cc1 (mixture of isomers) | inactive | 40 | –
2.47 | N=C(NCc1ccccc1)N1CCCC1CCc1ccccc1 (centres undefined) | inactive | 84 | –
0.63 | N=C1N[C@@H](c2ccc(Br)cc2)C[C@H]2CC[C@H](CCc3ccccc3)N12 | inactive | 23 | –
1.37 | Cc1cc(C)c(Nc2ccccc2CC[C@H]2CC[C@@H]3C[C@H](c4ccccc4)NC(=N)N23)c(C)c1 | inactive | 54 | –
> 33 | Cn1cc(CC[C@H]2CC[C@@H]3C[C@H](c4ccccc4)NC(=N)N23)cn1 | inactive | – | –
0.83 | N=C1N[C@@H](c2ccccc2)C[C@H]2CC[C@H](CCCc3ccccc3)N12 (mixture of isomers) | inactive | 31 | –
0.76 | COc1cccc([C@H]2C[C@H]3CC[C@H](CCc4ccccc4)N3C(=N)N2)c1 (mixture of isomers) | inactive | 21 | –
1.01 | Cc1ccccc1[C@H]1C[C@H]2CC[C@H](CCc3ccccc3)N2C(=N)N1 | inactive | 59 | Activity (Pancreatic islet [6]): Active; Activity (Pancreatic islet [7]): inactive
> 33 | N=C1N[C@@H](c2ccccc2)C[C@H]2CC[C@H](CCc3ccncc3)N12 | inactive | – | –
> 33 | CC(C)(C)OC(=O)/N=C1\N[C@@H](c2ccccc2)C[C@H]2CC[C@H](CCc3ccccc3)N12 | inactive | – | –
4.74 | N=C1N[C@@H](c2ccccc2)C[C@H]2CC[C@H](Cc3ccccc3)N12 | inactive | 52 | –
1.1 | Cc1cccc([C@H]2C[C@H]3CC[C@H](CCc4ccccc4)N3C(=N)N2)c1 (mixture of isomers) | inactive | 20 | –
> 33 | N=C1N[C@@H](c2ccc(C(=O)O)cc2)C[C@H]2CC[C@H](CCc3ccccc3)N12 | inactive | – | –

Compound | EC50 [1] [µM] | Activity (INS-1E) | Emax [2] [%] | also measured
N=C1N[C@@H](c2ccccc2)C[C@H]2CCCN12 (mixture of isomers) | > 33 | inactive | – | –
CCC[C@H]1CC[C@@H]2C[C@H](c3ccccc3)NC(=N)N12 | 11.1 | inactive | 55 | –
